Measurements reported in ChEMBL document CHEMBL1909046, “DrugMatrix in vitro pharmacology data”.

Assays:
[1] = target: T1, C-X-C chemokine receptor type 1 (Homo sapiens, UniProt P25024); further: in other assays of this panel Not Active means under 50% inhibition at 10 µM
T1 sequence (P25024 whole entry): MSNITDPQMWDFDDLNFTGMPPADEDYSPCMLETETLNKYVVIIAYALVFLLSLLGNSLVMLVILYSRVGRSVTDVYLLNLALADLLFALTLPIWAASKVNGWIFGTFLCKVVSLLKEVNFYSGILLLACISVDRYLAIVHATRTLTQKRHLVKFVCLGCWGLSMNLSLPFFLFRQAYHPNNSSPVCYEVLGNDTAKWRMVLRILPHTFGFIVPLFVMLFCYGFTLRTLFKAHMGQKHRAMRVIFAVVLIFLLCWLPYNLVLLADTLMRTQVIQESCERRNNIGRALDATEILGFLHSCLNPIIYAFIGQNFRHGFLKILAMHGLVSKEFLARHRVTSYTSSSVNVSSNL

[2] = target: Kappa-type opioid receptor (Homo sapiens, UniProt P41145); experiment: DRUGMATRIX: Opiate kappa (OP2, KOP) radioligand binding (ligand: [3H] Diprenorphine); type: cell membranes, HEK293, Membrane; settings: hek293; Not Active = under 50% inhibition at 10 µM
Chain of Kappa-type opioid receptor (P41145 whole entry): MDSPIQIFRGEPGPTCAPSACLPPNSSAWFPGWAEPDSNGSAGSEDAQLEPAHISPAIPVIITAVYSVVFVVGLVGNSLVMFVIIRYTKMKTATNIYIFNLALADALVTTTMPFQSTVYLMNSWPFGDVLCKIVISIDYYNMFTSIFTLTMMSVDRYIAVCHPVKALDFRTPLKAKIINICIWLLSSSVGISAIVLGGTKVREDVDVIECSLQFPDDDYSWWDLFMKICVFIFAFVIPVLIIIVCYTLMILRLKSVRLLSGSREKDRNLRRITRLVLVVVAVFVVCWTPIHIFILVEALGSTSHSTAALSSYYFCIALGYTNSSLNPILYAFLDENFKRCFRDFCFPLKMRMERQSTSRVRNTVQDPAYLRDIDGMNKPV

[3] = target: Sodium-dependent noradrenaline transporter (Homo sapiens, UniProt P23975); experiment: DRUGMATRIX: Norepinephrine Transporter radioligand binding (ligand: [125I] RTI-55); type: cell membranes, MDCK, Membrane; settings: mdck; Not Active = under 50% inhibition at 10 µM
Chain of Sodium-dependent noradrenaline transporter (P23975 whole entry): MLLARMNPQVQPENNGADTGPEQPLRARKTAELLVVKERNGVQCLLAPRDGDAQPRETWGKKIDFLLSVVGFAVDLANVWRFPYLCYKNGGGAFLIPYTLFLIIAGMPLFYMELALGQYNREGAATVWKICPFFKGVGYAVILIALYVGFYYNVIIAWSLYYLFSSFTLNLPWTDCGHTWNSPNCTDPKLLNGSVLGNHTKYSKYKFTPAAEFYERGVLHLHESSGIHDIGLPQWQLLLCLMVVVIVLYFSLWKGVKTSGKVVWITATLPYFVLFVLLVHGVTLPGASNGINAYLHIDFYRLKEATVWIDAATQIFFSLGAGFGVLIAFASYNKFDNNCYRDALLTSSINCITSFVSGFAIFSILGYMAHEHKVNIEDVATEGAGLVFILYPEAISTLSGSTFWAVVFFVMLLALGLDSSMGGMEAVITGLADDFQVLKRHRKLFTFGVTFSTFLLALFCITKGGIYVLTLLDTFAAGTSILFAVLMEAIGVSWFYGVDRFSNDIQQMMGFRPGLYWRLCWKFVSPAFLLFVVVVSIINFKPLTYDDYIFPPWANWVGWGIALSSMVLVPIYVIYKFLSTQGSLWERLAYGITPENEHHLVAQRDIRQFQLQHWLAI

[4] = DRUGMATRIX: Leukotriene, BLT (LTB4) radioligand binding (ligand: [3H]LTB4); type: cell membranes, Membrane; settings: u-937; Not Active = under 50% inhibition at 10 µM
Histamine H2 receptor = Histamine H2 receptor (Homo sapiens, UniProt P25021); type: cell membranes, CHO-K1, Membrane; further: in other assays of this panel Not Active means under 50% inhibition at 10 µM
Chain of Histamine H2 receptor (P25021 whole entry): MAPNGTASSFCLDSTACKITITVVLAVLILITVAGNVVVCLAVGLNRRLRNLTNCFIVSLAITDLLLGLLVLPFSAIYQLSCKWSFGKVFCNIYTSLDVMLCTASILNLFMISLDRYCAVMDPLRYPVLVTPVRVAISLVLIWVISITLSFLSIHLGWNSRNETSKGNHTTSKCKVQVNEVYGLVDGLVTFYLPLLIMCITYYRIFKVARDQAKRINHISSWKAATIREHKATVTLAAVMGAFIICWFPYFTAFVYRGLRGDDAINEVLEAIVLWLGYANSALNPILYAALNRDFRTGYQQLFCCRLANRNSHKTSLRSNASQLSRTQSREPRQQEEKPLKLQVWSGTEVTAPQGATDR

[5] = DRUGMATRIX: Glutamate, Kainate radioligand binding (ligand: [3H] Kainic acid); type: cell membranes, Rattus norvegicus, Wistar, Brain, Membrane; settings: Not Active = under 50% inhibition at 10 µM

Compound	IC50 [1]	IC50 [2]	IC50 [3]	IC50 [4]	Ki [4]	IC50 (Histamine H2 receptor; cho-k1)	IC50 [5]	Ki [5]	IC50 (Histamine H2 receptor; read-out: IC50) [µM]	Ki (Histamine H2 receptor; read-out: Ki) [µM]
CNS(=O)(=O)Cc1ccc2[nH]cc(CCN(C)C)c2c1	Not Active	Not Active	Not Active	Not Active	Not Active	Not Active	Not Active	Not Active		
C[C@]12CC[C@H]3[C@@H](CCC4=CC(=O)CC[C@@]43C)[C@@H]1CC[C@@H]2O [TESTOSTERONE]	Not Active	Not Active	Not Active	Not Active	Not Active	Not Active	Not Active	Not Active		
C[C@@H]1C[C@H]2[C@@H]3CCC4=CC(=O)C=C[C@]4(C)C3=CC[C@]2(C)[C@H]1C(=O)CN1CCN(c2cc(N3CCCC3)nc(N3CCCC3)n2)CC1 [TIRILAZAD]	Not Active	Not Active	Not Active	Not Active	Not Active		Not Active	Not Active	14.1	13.9
NC[C@H]1O[C@H](O[C@H]2[C@H](O)[C@@H](O[C@H]3O[C@H](CO)[C@@H](O)[C@H](N)[C@H]3O)[C@H](N)C[C@@H]2N)[C@H](N)C[C@@H]1O [TOBRAMYCIN]	Not Active	Not Active	Not Active	Not Active	Not Active	Not Active	Not Active	Not Active		
CN[C@@H]1[C@H](O)[C@H](NC)[C@H]2O[C@@]3(O)C(=O)C[C@@H](C)O[C@H]3O[C@@H]2[C@H]1O [SPECTINOMYCIN]	Not Active	Not Active	Not Active	Not Active	Not Active	Not Active	Not Active	Not Active		
CO[C@H]1C[C@@H]2CC[C@@H](C)[C@@](O)(O2)C(=O)C(=O)N2CCCC[C@H]2C(=O)O[C@H]([C@H](C)C[C@@H]2CC[C@@H](O)[C@H](OC)C2)CC(=O)[C@H](C)/C=C(\C)[C@@H](O)[C@@H](OC)C(=O)[C@H](C)C[C@H](C)/C=C/C=C/C=C/1C [SIROLIMUS]	Not Active	Not Active	Not Active	Not Active	Not Active	Not Active	Not Active	Not Active		
O=P(O)(O)C(O)(Cc1cccnc1)P(=O)(O)O [RISEDRONIC ACID]	Not Active	Not Active	Not Active	Not Active	Not Active	Not Active	Not Active	Not Active		
COc1ccc(CN2CCNCC2)c(OC)c1OC [TRIMETAZIDINE]	Not Active	Not Active	Not Active	Not Active	Not Active	Not Active	Not Active	Not Active		
